Experimental data reported in patent US9302999B2, “Substituted triazoles as herbicides” (E. I. DU PONT DE NEMOURS AND COMPANY, priority 2012, dated 2016).

Experiments:
Assay type in all cases: in vivo
[1] = tested on: surinam grass (Brachiaria decumbens); assay: Test F pre-/postemergence: surinam grass; conditions: Preemergence
Source text: (§1) Seeds of plant species selected from corn (Zea mays), soybean (Glycine max), velvetleaf (Abutilon theophrasti), lambsquarters (Chenopodium album), poinsettia, wild (wild poinsettia, Euphorbia heterophylla), pigweed, palmer (palmer pigweed, Amaranthus palmeri), waterhemp (common waterhemp, Amaranthus rudis), surinam grass (Brachiaria decumbens), crabgrass, Brazil (Brazilian crabgrass, Digitaria horizontalis), panicum, fall (fall panicum Panicum dichotomiflorum), crabgrass, large (large crabgrass, Digitaria sanguinalis), foxtail, giant (giant foxtail, Setaria faberii), foxtail, green (green foxtail Setaria viridis), goosegrass (Eleusine indica), ragweed (common ragweed, Ambrosia elatior), barnyardgrass (Echinochloa crus-galli), sandbur (southern sandbur, Cenchrus echinatus), arrowleaf sida (Sida rhombifolia), ryegrass, Italian (Italian ryegrass, Lolium multiflorum), dayflower, VA (Virginia (VA) dayflower, Commelina virginica), field bindweed (Convolvulus arvensis), cocklebur (common cocklebur, Xanthium strumarium), morningglory (Ipomoea coccinea), nightshade (eastern black nightshade, Solanum ptycanthum), kochia (Kochia scoparia), nutsedge, yellow (yellow nutsedge, Cyperus esculentus), johnsongrass (Sorghum halepense), smartweed (ladysthumb smartweed, Polygonum persicaria), and beggarticks (hairy beggarticks, Bidens pilosa), were planted into a silt loam soil and treated preemergence with test chemicals formulated in a non-phytotoxic solvent mixture which included a surfactant. At the same time, plants selected from these crop and weed species and also pigweed (Amaranthus retroflexus), waterhemp_RES1 (ALS/Triazine resistant common waterhemp, Amaranthus rudis) and waterhemp_RES2 (ALS/HPPD resistant common waterhemp, Amaranthus rudis) were planted in pots containing a planting medium comprising spaghnum peat moss, vermiculite, wetting agent and starter nutrients treated with postemergence applications of some of the test chemicals formulated in the same manner. Plants ranged in height from 2 to 18 cm for postemergence treatments (1- to 4-leaf stage).
(§2) Treated plants and controls were maintained in a greenhouse for 14 to 21 days, after which time all species were compared to controls and visually evaluated. Plant response ratings, summarized in Table E, are based on a scale of 0 to 100 where 0 is no effect and 100 is complete control. A dash (-) response means no test result.

[2] = tested on: corn (Zea mays); assay: Test F pre-/postemergence: corn
Outline: (§3)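 Seeds were sown in silt loam soil and sprayed preemergence with test chemical in a non-phytotoxic solvent mixture containing surfactant; postemergence treatments went onto plants 2 to 18 cm tall (1- to 4-leaf stage) grown in peat moss/vermiculite medium. After 14 to 21 days in a greenhouse, injury was rated visually against controls, 0 (no effect) to 100 (complete control).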

[3] = tested on: poinsettia, wild (wild poinsettia, Euphorbia heterophylla); assay: Test F pre-/postemergence: poinsettia, wild
Source text: as §1, §2

[4] = tested on: field bindweed (Convolvulus arvensis); assay: Test F pre-/postemergence: field bindweed
Outline: as §3

[5] = tested on: Waterhemp; assay: Test C postemergence: waterhemp
Source text: At the same time, plants selected from these crop and weed species and also barley (winter barley, Hordeum vulgare), canarygrass (Phalaris minor), chickweed (common chickweed, Stellaria media) windgrass (Apera spica-venti) and deadnettle (henbit deadnettle, Lamium amplexicaule) were planted in pots containing Redi-Earth® planting medium (Scotts Company, 14111 Scottslawn Road, Marysville, Ohio 43041) comprising spaghnum peat moss, vermiculite, wetting agent and starter nutrients and treated with postemergence applications of test chemicals formulated in the same manner. Plants ranged in height from 2 to 18 cm (1- to 4-leaf stage) for postemergence treatments.
as §2, with “13” for “14”, “15” for “21”, “C,” for “E,”

[6] = 16 g ai/ha, scale 0 to 100 (0 no effect, 100 complete control)
[7] = 31 g ai/ha, scale 0 to 100 (0 no effect, 100 complete control)
[8] = Preemergence, 16 g ai/ha, scale 0 to 100 (0 no effect, 100 complete control)
[9] = Preemergence, 31 g ai/ha, scale 0 to 100 (0 no effect, 100 complete control)
[10] = Preemergence, 62 g ai/ha, scale 0 to 100
[11] = Preemergence, 125 g ai/ha, scale 0 to 100
[12] = Preemergence, 250 g ai/ha, scale 0 to 100
[13] = 62 g ai/ha, scale 0 to 100 (0 no effect, 100 complete control)
[14] = Postemergence, 4 g ai/ha, scale 0 to 100
[15] = Postemergence, 8 g ai/ha, scale 0 to 100
[16] = Postemergence, 16 g ai/ha, scale 0 to 100
[17] = Postemergence, 31 g ai/ha, scale 0 to 100
[18] = Postemergence, 62 g ai/ha, scale 0 to 100
[19] = Preemergence, 4 g ai/ha, scale 0 to 100, 0 no effect, 100 complete control
[20] = Preemergence, 8 g ai/ha, scale 0 to 100, 0 no effect, 100 complete control

Fc1ccc(-n2nc(Cc3ccnc(C(F)(F)F)c3)c(OCC(F)(F)F)n2)cc1 [Compound 142]
Plant response rating, Surinam Grass [1, 6]: 5 | Plant response rating, Surinam Grass [1, 7]: 5 | Plant response rating, Surinam Grass ([1]; 125 g ai/ha, scale 0 to 100): 60 | Plant response rating, Corn [2, 8]: 0 | Plant response rating, Corn [2, 9]: 0 | Plant response rating, Corn [2, 10]: 0 | Plant response rating, Corn [2, 11]: 0 | Plant response rating, Poinsettia, Wild [3, 8]: 0 | Plant response rating, Poinsettia, Wild [3, 9]: 10 | Plant response rating, Poinsettia, Wild [3, 11]: 70 | Plant response rating, Field Bindweed [4, 8]: 20 | Plant response rating, Field Bindweed [4, 9]: 50 | Plant response rating, Field Bindweed [4, 10]: 75 | Plant response rating, Field Bindweed [4, 11]: 98

CCCc1nn(-c2ccc(F)cc2)nc1Cc1ccnc(C(F)(F)F)c1 [Compound 153]
Plant response rating, Surinam Grass [1, 6]: 0 | Plant response rating, Surinam Grass [1, 7]: 5 | Plant response rating, Surinam Grass ([1]; 125 g ai/ha, scale 0 to 100): 75 | Plant response rating, Surinam Grass ([1]; 250 g ai/ha, scale 0 to 100): 98 | Plant response rating, Corn [2, 8]: 0 | Plant response rating, Corn [2, 9]: 0 | Plant response rating, Corn [2, 10]: 0 | Plant response rating, Corn [2, 11]: 0 | Plant response rating, Corn [2, 12]: 10 | Plant response rating, Poinsettia, Wild [3, 8]: 0 | Plant response rating, Poinsettia, Wild [3, 9]: 25 | Plant response rating, Poinsettia, Wild [3, 11]: 70 | Plant response rating, Poinsettia, Wild [3, 12]: 98 | Plant response rating, Field Bindweed [4, 8]: 5 | Plant response rating, Field Bindweed [4, 9]: 65 | Plant response rating, Field Bindweed [4, 10]: 65 | Plant response rating, Field Bindweed [4, 11]: 100 | Plant response rating, Field Bindweed [4, 12]: 100 | Plant response rating, Waterhemp [5, 7]: 98 | Plant response rating, Waterhemp [5, 13]: 98 | Plant response rating, Waterhemp ([5]; 250 g ai/ha, scale 0 to 100): 98

Cc1nn(-c2ccc(C(F)(F)F)c(F)c2)nc1Cc1ccnc(C(F)(F)F)c1 [Compound 162]
Plant response rating, Surinam Grass ([1]; 4 g ai/ha, scale 0 to 100, 0 no effect, 100 complete control): 0 | Plant response rating, Surinam Grass ([1]; 8 g ai/ha, scale 0 to 100, 0 no effect, 100 complete control): 0 | Plant response rating, Corn [2, 14]: 5 | Plant response rating, Corn [2, 15]: 5 | Plant response rating, Corn [2, 16]: 10 | Plant response rating, Corn [2, 17]: 10 | Plant response rating, Corn [2, 18]: 10 | Plant response rating, Corn [2, 19]: 0 | Plant response rating, Corn [2, 20]: 0 | Plant response rating, Corn [2, 8]: 0 | Plant response rating, Corn [2, 9]: 0 | Plant response rating, Corn [2, 10]: 0 | Plant response rating, Poinsettia, Wild [3, 14]: 15 | Plant response rating, Poinsettia, Wild [3, 15]: 30 | Plant response rating, Poinsettia, Wild [3, 16]: 60 | Plant response rating, Poinsettia, Wild [3, 17]: 75 | Plant response rating, Poinsettia, Wild [3, 18]: 80 | Plant response rating, Poinsettia, Wild [3, 19]: 0 | Plant response rating, Poinsettia, Wild [3, 20]: 0 | Plant response rating, Poinsettia, Wild [3, 8]: 0 | Plant response rating, Poinsettia, Wild [3, 9]: 10 | Plant response rating, Field Bindweed [4, 14]: 20 | Plant response rating, Field Bindweed [4, 15]: 20 | Plant response rating, Field Bindweed [4, 16]: 20 | Plant response rating, Field Bindweed [4, 17]: 30 | Plant response rating, Field Bindweed [4, 18]: 50 | Plant response rating, Field Bindweed [4, 19]: 0 | Plant response rating, Field Bindweed [4, 20]: 0 | Plant response rating, Field Bindweed [4, 8]: 5 | Plant response rating, Field Bindweed [4, 9]: 5 | Plant response rating, Field Bindweed [4, 10]: 5 | Plant response rating, Waterhemp [5, 7]: 98 | Plant response rating, Waterhemp [5, 13]: 100 | Plant response rating, Waterhemp ([5]; 250 g ai/ha, scale 0 to 100): 100

CCc1nn(-c2ccc(F)cc2)nc1Oc1ccnc(C(F)(F)F)c1 [Compound 166]
Plant response rating, Waterhemp ([5]; 250 g ai/ha, scale 0 to 100): 98

CCCc1nn(-c2ccc(C(F)(F)F)c(F)c2)nc1Oc1ccnc(C(F)(F)F)c1 [Compound 185]
Plant response rating, Waterhemp [5, 13]: 90
